From EP4707392A1, “DOUBLE-STRANDED OLIGONUCLEOTIDE, CONJUGATE THEREOF, AND USE THEREOF” (priority 2023, dated 2024) come the findings set out here.

The first data set relates to coagulation factor XI (Factor XI, FXI) mRNA. As to the kind of experiment: In vitro inhibitory activity of siRNA conjugates modified with TOM against FXI mRNA, free uptake by mouse primary hepatocytes (Example 6). The format is cell-based.
Conditions: not given
As for the experimental part: The inhibitory activities of the siRNA conjugates modified with TOM at different sites of an antisense strand against a target gene FXI in mouse primary hepatocytes were evaluated by the same experimental method as that in Example 4. Differences lie in that the siRNA conjugates modified with TOM at different sites of an antisense strand were used in the present example to replace the siRNA conjugates used in Example 4, and that target gene FXI detection primers listed in Table 13 were used in the present example to replace target gene detection primers used in Example 4. Relative quantitative calculation was performed for the target gene mRNA in various test groups by the preceding ΔΔCt method.
As for “RZ594040: siRNA conjugate, SEQ ID NOs 367/368 (chain 1 GUACGUGGACUGGAUUCUG; chain 2 CAGAATCCAGTCCACGTACTT; siRNA conjugate, conjugate and pattern not given here)”, the “in vitro activity compared with the reference sequence (RZ594001) without TOM modification” value is recorded as “conducive to enhancing in vitro activity”. In the case of “RZ594016: siRNA conjugate, SEQ ID NOs 309/310 (chain 1 GUACGUGGACUGGAUUCUG; chain 2 CAGAATCCAGTCCACGTACTT; siRNA conjugate, conjugate and pattern not given here)”, the “in vitro activity compared with the reference sequence (RZ594001) without TOM modification” value is given as “significantly weakened the in vitro activity”. The same measure, in the same setting: under “RZ594018: siRNA conjugate, SEQ ID NOs 313/314 (chain 1 GUACGUGGACUGGAUUCUG; chain 2 CAGAATCCAGTCCACGTACTT; siRNA conjugate, conjugate and pattern not given here)” stands “conducive to enhancing in vitro activity”; under “RZ594035: siRNA conjugate, SEQ ID NOs 357/358 (chain 1 GUACGUGGACUGGAUUCUG; chain 2 CAGAATCCAGTCCACGTACTT; siRNA conjugate, conjugate and pattern not given here)”, “conducive to enhancing in vitro activity”. Regarding “RZ594014: siRNA conjugate, SEQ ID NOs 305/306 (chain 1 GUACGUGGACUGGAUUCUG; chain 2 CAGAATCCAGTCCACGTACTT; siRNA conjugate, conjugate and pattern not given here)”, the “in vitro activity compared with the reference sequence (RZ594001) without TOM modification” value is “significantly weakened the in vitro activity”. As for “RZ594030: siRNA conjugate, SEQ ID NOs 347/348 (chain 1 GUACGUGGACUGGAUUCUG; chain 2 CAGAATCCAGTCCACGTACTT; siRNA conjugate, conjugate and pattern not given here)”, the “in vitro activity compared with the reference sequence (RZ594001) without TOM modification” value is on record as “conducive to enhancing in vitro activity”. Turning to “RZ594006: siRNA conjugate, SEQ ID NOs 345/346 (chain 1 GUACGUGGACUGGAUUCUG; chain 2 CAGAATCCAGTCCACGTACTT; siRNA conjugate, conjugate and pattern not given here)”, the “in vitro activity compared with the reference sequence (RZ594001) without TOM modification” value is “conducive to enhancing in vitro activity”.

Turning to “RZ594011: siRNA conjugate, SEQ ID NOs 299/300 (chain 1 GUACGUGGACUGGAUUCUG; chain 2 CAGAATCCAGTCCACGTACTT; siRNA conjugate, conjugate and pattern not given here)”, the “in vitro activity compared with the reference sequence (RZ594001) without TOM modification” value is “conducive to enhancing in vitro activity”. Turning to “RZ594041: siRNA conjugate, SEQ ID NOs 369/370 (chain 1 GUACGUGGACUGGAUUCUG; chain 2 CAGAATCCAGTCCACGTACTT; siRNA conjugate, conjugate and pattern not given here)”, the “in vitro activity compared with the reference sequence (RZ594001) without TOM modification” value was “conducive to enhancing in vitro activity”.

For the substance “RZ594005: siRNA conjugate, SEQ ID NOs 343/344 (chain 1 GUACGUGGACUGGAUUCUG; chain 2 CAGAATCCAGTCCACGTACTT; siRNA conjugate, conjugate and pattern not given here)”, the “in vitro activity compared with the reference sequence (RZ594001) without TOM modification” value was “conducive to enhancing in vitro activity”. Take “RZ594019: siRNA conjugate, SEQ ID NOs 315/316 (chain 1 GUACGUGGACUGGAUUCUG; chain 2 CAGAATCCAGTCCACGTACTT; siRNA conjugate, conjugate and pattern not given here)”: the “in vitro activity compared with the reference sequence (RZ594001) without TOM modification” value is “conducive to enhancing in vitro activity”.

As to “RZ594008: siRNA conjugate, SEQ ID NOs 293/294 (chain 1 GUACGUGGACUGGAUUCUG; chain 2 CAGAATCCAGTCCACGTACTT; siRNA conjugate, conjugate and pattern not given here)”, the “in vitro activity compared with the reference sequence (RZ594001) without TOM modification” value is reported as “significantly weakened the in vitro activity”. Still for that read-out and setting: under “RZ594009: siRNA conjugate, SEQ ID NOs 295/296 (chain 1 GUACGUGGACUGGAUUCUG; chain 2 CAGAATCCAGTCCACGTACTT; siRNA conjugate, conjugate and pattern not given here)” stands “significantly weakened the in vitro activity”; under “RZ594025: siRNA conjugate, SEQ ID NOs 327/328 (chain 1 GUACGUGGACUGGAUUCUG; chain 2 CAGAATCCAGTCCACGTACTT; siRNA conjugate, conjugate and pattern not given here)”, “conducive to enhancing in vitro activity”; under “RZ594012: siRNA conjugate, SEQ ID NOs 301/302 (chain 1 GUACGUGGACUGGAUUCUG; chain 2 CAGAATCCAGTCCACGTACTT; siRNA conjugate, conjugate and pattern not given here)”, “conducive to enhancing in vitro activity”. In the case of “RZ594004: siRNA conjugate, SEQ ID NOs 341/342 (chain 1 GUACGUGGACUGGAUUCUG; chain 2 CAGAATCCAGTCCACGTACTT; siRNA conjugate, conjugate and pattern not given here)”, the “in vitro activity compared with the reference sequence (RZ594001) without TOM modification” value is listed as “conducive to enhancing in vitro activity”. As for “RZ594013: siRNA conjugate, SEQ ID NOs 303/304 (chain 1 GUACGUGGACUGGAUUCUG; chain 2 CAGAATCCAGTCCACGTACTT; siRNA conjugate, conjugate and pattern not given here)”, the “in vitro activity compared with the reference sequence (RZ594001) without TOM modification” value is “significantly weakened the in vitro activity”. Regarding “RZ594015: siRNA conjugate, SEQ ID NOs 307/308 (chain 1 GUACGUGGACUGGAUUCUG; chain 2 CAGAATCCAGTCCACGTACTT; siRNA conjugate, conjugate and pattern not given here)”, the “in vitro activity compared with the reference sequence (RZ594001) without TOM modification” value was “significantly weakened the in vitro activity”. Regarding “RZ594024: siRNA conjugate, SEQ ID NOs 325/326 (chain 1 GUACGUGGACUGGAUUCUG; chain 2 CAGAATCCAGTCCACGTACTT; siRNA conjugate, conjugate and pattern not given here)”, the “in vitro activity compared with the reference sequence (RZ594001) without TOM modification” value was “conducive to enhancing in vitro activity”.

The next data set has as its system CC3 mRNA. As to the kind of experiment: Inhibitory activity of siRNAs modified with MOE at different sites against CC3 mRNA in HepG2 cells (Example 8). To be noted: MOE at a single site. It counts as cell-based, human. How it is done:
In vitro activities of siRNA compounds, such as RX502165 modified with MOE at different sites of a sense strand and RX502172 modified with MOE at different sites of an antisense strand, and a reference compound RX502001 without MOE modification on HepG2 cells were evaluated using the same experimental method as that in Example 2. A difference lies in that the siRNA compounds modified with MOE at different sites of the sense and antisense strands were used in the present example to replace the siRNA compounds used in Example 2. Relative quantitative calculation was performed for the target gene mRNA in various test groups by the preceding ΔΔCt method.
With “RZ594011: siRNA conjugate, SEQ ID NOs 299/300 (chain 1 GUACGUGGACUGGAUUCUG; chain 2 CAGAATCCAGTCCACGTACTT; siRNA conjugate, conjugate and pattern not given here)”, the “in vitro activity compared with the reference sequence (RX502001) without MOE modification” value is on record as “conducive to elevating the in vitro activity”.
